# pIC50: −log10 of the molar value.
# Target: T1, SMYD3 (Homo sapiens, UniProt Q9H7B4)
# T1 sequence (Q9H7B4 1-428): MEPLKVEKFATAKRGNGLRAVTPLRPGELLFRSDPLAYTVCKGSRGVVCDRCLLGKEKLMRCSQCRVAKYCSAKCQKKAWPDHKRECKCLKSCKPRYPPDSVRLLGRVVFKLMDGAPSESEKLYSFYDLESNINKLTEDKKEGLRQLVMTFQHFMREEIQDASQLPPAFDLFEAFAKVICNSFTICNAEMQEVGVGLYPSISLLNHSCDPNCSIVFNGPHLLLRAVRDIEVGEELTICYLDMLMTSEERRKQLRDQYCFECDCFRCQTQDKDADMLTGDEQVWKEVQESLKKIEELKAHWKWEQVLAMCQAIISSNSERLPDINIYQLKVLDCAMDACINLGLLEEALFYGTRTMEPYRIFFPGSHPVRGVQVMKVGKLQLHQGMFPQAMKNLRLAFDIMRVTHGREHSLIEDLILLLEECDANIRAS
# Test: SMYD3 biochemical assay (MTase-Glo, MAP3K2 peptide substrate)
# Details: not given
# Method in brief: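 Luminescent readout of SAH production (coupled SAH→ATP conversion, MTase-Glo) after SMYD3 reacted 30 min at room temperature with 1.0 µM SAM and 10 µM MAP3K2 peptide, both final. Non-linear regression gave IC50 values.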
row,activity against SMYD3,SMILES
1,inactive,"NC(=O)C1CCN(CC(=O)Nc2ccc(Br)cc2)CC1 [BCI-121, reference compound]"

# Same assay, conditions: Table 3; MTase assay, MAP3K2 peptide substrate; read-out: IC50
row,pIC50,SMILES
1,5.00,"C=CCOC(=O)N1CCN(C(=O)c2ccc3c(Cl)c4c(nc3c2)CCC4)CC1 [C002, Allyl 4-(9-chloro-2,3-dihydro-1H-cyclopenta[b]quinoline-6-carbonyl)piperazine-1-carboxylate]"
2,5.52,"CCCOC(=O)N1CCN(C(=O)c2ccc3c(Cl)c(C)c(C)nc3c2)CC1 [C003, Propyl 4-(4-chloro-2,3-dimethylquinoline-7-carbonyl)piperazine-1-carboxylate]"
3,5.85,"CCCOC(=O)N1CCN(C(=O)c2ccc3c(Cl)cc(CC)nc3c2)CC1 [C004, Propyl 4-(4-chloro-2-ethylquinoline-7-carbonyl)piperazine-1-carboxylate]"
4,5.55,"CCCOC(=O)N1CCN(C(=O)c2ccc3c(Cl)c(C#N)c(C)nc3c2)CC1 [C006, Propyl 4-(4-chloro-3-cyano-2-methylquinoline-7-carbonyl)piperazine-1-carboxylate]"
5,6.26,"CCCOC(=O)N1C2CCCC1CN(C(=O)c1ccc3c(Cl)ccnc3c1)C2 [C007, Propyl 3-(4-chloroquinoline-7-carbonyl)-3,9-diazabicyclo[3.3.1]nonane-9-carboxylate]"
6,5.34,"CCCOC(=O)N1CCN(C(=O)c2ccc3c(Cl)c4c(nc3c2)CCNC4)CC1 [C008, Propyl 4-(10-chloro-1,2,3,4-tetrahydrobenzo[b][1,6]naphthyridine-7-carbonyl)piperazine-1-carboxylate]"
7,4.87,"C[C@@H]1CN(C(=O)c2ccc3c(Cl)cc(-c4ccn(C)c4)nc3c2)CCN1C(=O)C[C@H]1CCC(=O)N1 [D001, (R)-5-(2((R)-4-(4-Chloro-2-(1-methyl-1H-pyrrol-3-yl)quinoline-7-carbonyl)-2-methylpiperazin-1-yl)-2-oxoethyl)pyrrolidin-2-one]"
8,8.40,"O=C(c1ccc2c(Cl)cc(-c3ccccc3)nc2c1)N1CCN(C(=O)c2cn(C3CC3)nn2)CC1 [D002, (4-Chloro-2-phenylquinolin-7-yl)(4-(1-cyclopropyl-1H-1,2,3-triazole-4-carbonyl)piperazin-1-yl)methanone]"
9,7.60,"Cn1ccc(-c2cc(Cl)c3ccc(C(=O)N4CCN(C(=O)c5cn(C6CC6)nn5)CC4)cc3n2)c1 [D003, (4-Chloro-2-(1-methyl-1H-pyrrol-3-yl)quinolin-7-yl)(4-(1-cyclopropyl-1H-1,2,3-triazole-4-carbonyl)piperazin-1-yl)methanone]"
10,7.89,"C[C@@H]1CN(C(=O)c2ccc3c(Cl)cc(-c4ccn(C)c4)nc3c2)CCN1C(=O)c1cn(C2CC2)nn1 [D004, (R)-(4-Chloro-2-(1-methyl-1H-pyrrol-3-yl)quinolin-7-yl)(4-(1-cyclopropyl-1H-1,2,3-triazole-4-carbonyl)-3-methylpiperazin-1-yl)methanone]"
11,7.11,"C[C@@H]1CN(C(=O)c2ccc3c(Cl)cc(-c4ccccc4)nc3c2)CCN1C(=O)c1cn(C2CC2)nn1 [D005, (R)-(4-Chloro-2-phenylquinolin-7-yl)(4-(1-cyclopropyl-1H-1,2,3-triazole-4-carbonyl)-3-methylpiperazin-1-yl)methanone]"
12,7.28,"C[C@@H]1CN(C(=O)c2ccc3c(Cl)cc(-c4ccc(C(C)(C)O)cc4)nc3c2)CCN1C(=O)c1cn(C2CC2)nn1 [D006, (R)-(4-Chloro-2-(4-(2-hydroxypropan-2-yl)phenyl)quinolin-7-yl)(4-(1-cyclopropyl-1H-1,2,3-triazole-4-carbonyl)-3-methylpiperazin-1-yl)methanone]"
13,7.08,"Cn1cc(C(=O)N2CCN(C(=O)c3ccc4c(Cl)cc(-c5ccccc5)nc4c3)CC2)nn1 [D007, (4-Chloro-2-phenylquinolin-7-yl)(4-(1-methyl-1H-1,2,3-triazole-4-carbonyl)piperazin-1-yl)methanone]"
14,6.35,"CC(C)(C)n1cc(C(=O)N2CCN(C(=O)c3ccc4c(Cl)cc(-c5ccccc5)nc4c3)CC2)nn1 [D008, (1-(Tert-butyl)-1H-1,2,3-triazol-4-yl)(4-(4-chloro-2-phenylquinoline-7-carbonyl)piperazin-1-yl)methanone]"
15,6.70,"O=C(c1ccc2c(Cl)cc(-c3ccccc3)nc2c1)N1CCN(C(=O)c2cnn(C3CC3)c2)CC1 [D011, (4-Chloro-2-phenylquinolin-7-yl)(4-(1-cyclopropyl-1H-pyrazole-4-carbonyl)piperazin-1-yl)nethanone]"
16,7.00,"CC(C)(CN)c1ccc(-c2cc(Cl)c3ccc(C(=O)N4CCN(C(=O)c5cn(C6CC6)nn5)CC4)cc3n2)cc1 [D012, (2-(4-(1-Amino-2-methylpropan-2-yl)phenyl)-4-chloroquinolin-7-yl)(4-(1-cyclopropyl-1H-1,2,3-triazole-4-carbonyl)piperazin-1-yl)nethanone]"
17,7.11,"NC1(c2ccc(-c3cc(Cl)c4ccc(C(=O)N5CCN(C(=O)c6cn(C7CC7)nn6)CC5)cc4n3)cc2)CC1 [D013, (2-(4-(1-Aminocyclopropyl)phenyl)-4-chloroquinolin-7-yl)(4-(1-cyclopropyl-1H-1,2,3-triazole-4-carbonyl)piperazin-1-yl)methanone]"
18,7.16,"COc1ccc(-c2cc(Cl)c3ccc(C(=O)N4CCN(C(=O)c5cn(C6CC6)nn5)CC4)cc3n2)cc1CN [D014, (2-(3-(Aminomethyl)-4-methoxyphenyl)-4-chloroquinolin-7-yl)(4-(1-cyclopropyl-1H-1,2,3-triazole-4-carbonyl)piperazin-1-yl)methanone]"
19,7.41,"NCc1cc(-c2cc(Cl)c3ccc(C(=O)N4CCN(C(=O)c5cn(C6CC6)nn5)CC4)cc3n2)ccc1F [E019, (2-(3-(Aminomethyl)-4-fluorophenyl)-4-chloroquinolin-7-yl)(4-(1-cyclopropyl-1H-1,2,3-triazole-4-carbonyl)piperazin-1-yl)methanone]"

# More lines, now with the values behind:
row,SMILES,pIC50
1,"CCCOC(=O)N1CCN(C(=O)c2ccc3c(Cl)cc(-c4cnn(C5CCCC5)c4)nc3c2)CC1 [B277, Propyl 4-(4-chloro-2-(1-cyclopentyl-1H-pyrazol-4-yl)quinoline-7-carbonyl)piperazine-1-carboxylate]",7.22
2,"CCCOC(=O)N1CCN(C(=O)c2ccc3c(Cl)cc(-c4cnn(C5CCCC5)c4)nc3c2)C[C@H]1C [B278, Propyl (R)-4-(4-chloro-2-(1-cyclopentyl-1H-pyrazol-4-yl)quinoline-7-carbonyl)-2-methylpiperazine-1-carboxylate]",7.66
3,"CCCOC(=O)N1CCN(C(=O)c2ccc3c(Cl)cc(-c4cnn(C5CCCC5)c4)nc3c2)C[C@@H]1C [B279, Propyl (S)-4-(4-chloro-2-(1-cyclopentyl-1H-pyrazol-4-yl)quinoline-7-carbonyl)-2-methylpiperazine-1-carboxylate]",7.70
4,"CCCOC(=O)N1CCN(C(=O)c2ccc3c(Cl)cc(-c4ccc(OC)c(CN)c4)nc3c2)C[C@@H]1C [B280, Propyl (S)-4-(2-(3-(aminomethyl)-4-methoxyphenyl)-4-chloroquinoline-7-carbonyl)-2-methylpiperazine-1-carboxylate]",7.17
5,"CCCOC(=O)N1CCN(C(=O)c2ccc3c(Cl)cc(-c4ccc(C5(N)CC5)cc4)nc3c2)C[C@H]1C [B281, Propyl (R)-4-(2-(4-(1-aminocyclopropyl)phenyl)-4-chloroquinoline-7-carbonyl)-2-methylpiperazine-1-carboxylate]",7.92
6,"CCCOC(=O)N1CCN(C(=O)c2ccc3c(Cl)cc(-c4ccc(C(C)(C)CN)cc4)nc3c2)C[C@H]1C [B282, Propyl (R)-4-(2-(4-(1-amino-2-methylpropan-2-yl)phenyl)-4-chloroquinoline-7-carbonyl)-2-methylpiperazine-1-carboxylate]",7.89
7,"CCCOC(=O)N1CCN(C(=O)c2ccc3c(Cl)cc(-c4ccc(C(C)N5CCCC5)cc4)nc3c2)C[C@H]1C (stereo partly drawn) [B283, Propyl (2R)-4-(4-chloro-2-(4-(1-(pyrrolidin-1-yl)ethyl)phenyl)quinoline-7-carbonyl)-2-methylpiperazine-1-carboxylate]",6.55
8,"CCCOC(=O)N1CCN(C(=O)c2ccc3c(Cl)cc(-c4ccc(C(C)N(C)C)cc4)nc3c2)C[C@H]1C (stereo partly drawn) [B284, Propyl (2R)-4-(4-chloro-2-(4-(1-(dimethylamino)ethyl)phenyl)quinoline-7-carbonyl)-2-methylpiperazine-1-carboxylate]",7.62
9,"CCCOC(=O)N1CCN(C(=O)c2ccc3c(Cl)cc(-c4ccc(C(C)(C)CN)cc4)nc3c2)CC1 [B285, Propyl 4-(2-(4-(1-amino-2-methylpropan-2-yl)phenyl)-4-chloroquinoline-7-carbonyl)piperazine-1-carboxylate]",7.89
10,"CCCOC(=O)N1CCN(C(=O)c2ccc3c(Cl)cc(-c4ccc(C(C)(C)CNC)cc4)nc3c2)CC1 [B286, Propyl 4-(4-chloro-2-(4-(2-methyl-1-(methylamino)propan-2-yl)phenyl)quinoline-7-carbonyl)piperazine-1-carboxylate]",7.60
11,"CCCOC(=O)N1CCN(C(=O)c2ccc3c(Cl)cc(-c4ccc(C(C)(C)CN(C)C)cc4)nc3c2)CC1 [B287, Propyl 4-(4-chloro-2-(4-(1-(dimethylamino)-2-methylpropan-2-yl)phenyl)quinoline-7-carbonyl)piperazine-1-carboxylate]",6.89

# From US20190071416A1, “COMPOUNDS FOR TREATMENT OF CANCER AND EPIGENETICS” (Agency For Science, Technology and Research, priority 2015, published 2019)
